Reference: patent US6445486B1, “Electroactive materials and beneficial agents having a solubilizing moiety” (Gentex Corporation, priority 1999, dated 2002)
Values after ≈ are worked out from the molar mass of the structure shown.

Assay: Solubility at saturation in the solvent of interest, calculated from UV-VIS spectra of saturated solutions
Details: propylene carbonate, organic solvent or mixture, thermodynamic from solid

| solubility [mM] | Molecule |
| --- | --- |
| 55 (≈ 13100 µg/mL) | Cc1ccc2c(c1)N(C)c1ccc(C)cc1N2C [2,5,7,10-Tetramethyl-5,10-dihydrophenazine, reference compound] |
| 12 (≈ 4250 µg/mL) | CCn1c(=NN=c2sc3ccccc3n2CC)sc2ccccc21 [N,N′-Bis-(3-ethyl-3H-benzothiazol-2-ylidene)-hydrazine, reference compound] |
| 5 (≈ 1850 µg/mL) | c1ccc(N2c3ccccc3N(CCN3CCCCC3)c3ccccc32)cc1 [5-Phenyl-10-(2-piperidin-1-yl-ethyl)-5,10-dihydrophenazine, reference compound] |
| 110 (≈ 23100 µg/mL) | CN1c2ccccc2N(C)c2ccccc21 [5,10-Dihydro-5,10-dimethylphenazine, reference compound] |

| Molecule | solubility [mM] |
| --- | --- |
| CC[N+](CC)(CC)CCCCn1c(=NN=c2sc3ccccc3n2C)sc2ccccc21.F[B-](F)(F)F [triethyl-(4-{2-[(3-methyl-3H-benzothiazol-2-ylidene)-hydrazono]-benzothiazol-3-yl}-butyl)-ammonium tetrafluoroborate] | 47 |

Same assay, conditions: saturated solution in propylene carbonate; ambient temperature

| Molecule | Solubility in propylene carbonate [mM] |
| --- | --- |
| CC[N+](CC)(CC)CCN1c2ccccc2N(CC[N+](CC)(CC)CC)c2ccccc21.F[B-](F)(F)F.F[B-](F)(F)F [5,10-Bis-2-(triethylammonium)ethylphenazine [BF4]2] | 200 |
| 1-Triethylammonium-6-(tetra-t-butylferrocenyl)hexane BF4 | 514.4 |
| F[B-](F)(F)F.F[B-](F)(F)F.N#Cc1ccc(-[n+]2ccc(-c3cc[n+](CCC[c-]4cccc4)cc3)cc2)cc1.[Fe+2].c1cc[cH-]c1 [Ferrocenepropyl-p-cyanophenylviologen tetrafluoroborate] | 276.0 |
| CC[N+](CC)(CC)CCN1c2ccc(C)cc2N(CC[N+](CC)(CC)CC)c2ccc(C)cc21.F[B-](F)(F)F.F[B-](F)(F)F [2,7-Dimethyl-5,10-bis-2-(triethylammonium)ethylphenazine [BF4]2] | 250 |

Assay: physchem
Details: organic solvent or mixture, thermodynamic from solid

| Molecule | solubility [mM] |
| --- | --- |
| C[N+]1(CCN2c3ccccc3N(c3ccccc3)c3ccccc32)CCCCC1.F[P-](F)(F)(F)(F)F [1-Methyl-1-[2-(10-phenyl-10H-phenazin-5-yl)-ethyl]-piperidinium hexafluorophosphate] | 500 |
